Measured values reported in patent US10543215B2, “Combination therapy of cardiac myosin activator and sinus node if current inhibitor” (AMGEN INC., priority 2015, dated 2020).
“And” between values parts separate entries of the source, which are not always exact repeats. Equal values may be shown once.

Test system: conscious telemetered beagle dogs
Test: Left-ventricular hemodynamic, mechanical and timing indices by radio-telemetry before and during IV OM or vehicle, on repeated oral IVA or placebo
Assay type: in vivo, beagle dog
Procedure: Healthy male beagle dogs (n=7) instrumented with radio-telemetry units providing continuous single-lead electrocardiogram (ECG), as well as systemic (arterial, AoP) and left-ventricular (LVP) pressure signals were used for this study. Following sling acclimation, the animals were assigned to receive repeated oral (via gavage) treatments with either Ivabradine (IVA, 5 mg/kg bid) or a volume-matched placebo-control (sterile water, CTRL) for 5 days, administered at a dose volume of 10 mL/kg, in a cross over design.
The animals were sling-restrained and were subjected to acute intravenous administration of either sterile water (VEH, on Days 4 and 11 of dosing) or Omecamtiv Mecarbil (OM, on Days 5 and 12 of dosing). OM treatments were performed over a 3-hour infusion duration, following a dose-escalation design targeting plasma concentrations of 600 and 1000 ng/mL (each over 90 minutes, with a 30 minute loading infusion followed by a 60 minute maintenance infusion) for a cumulative dose of 5.293 mg/kg (as shown in Table A below). The IV vehicle treatments were time- and volume-matched.
Telemetered data were collected continuously for at least 90 minutes prior to and during dosing, as well as for at least 20 hours post-dose. The LVP and ECG signals were digitized at a sampling rate of at least 1000 Hz. The data were analyzed for heart rate (HR) and left-ventricular hemodynamic/mechanical indices that were obtained from the pressure waveform, including mean systolic (MSP) and end-diastolic (filling, EDP) pressures, the peak rates of pressure change during systole/diastole (dP/dtmax/min), as well as the time-constant of relaxation (tau) and a contractility index (CI: dP/dtmax normalized by the pressure at dP/dtmax). The data were also analyzed for systolic and diastolic intervals, including the estimated durations of the systolic ejection (SET), contraction (CT), active relaxation (RT) and filling intervals (FT), as well as the systolic-to-diastolic interval ratio (S/D: SET/RT+FT), which were derived from the left-ventricular pressure waveform.
The left-ventricular indices were evaluated only in the sling-restrained animals before and during IV treatment with OM or vehicle. Cardiovascular responses at each dose level were monitored for up to 90 minutes, i.e., over 3 hours total (during IV dosing of VEH and OM on Days 4, 5, 11, and 12 in the dose administration paradigm). Overall, in-sling cardiovascular data are reported at the following pre-determined/targeted time points: prior to dosing (i.e., at baseline, PRE) and approximately at the end of each infusion period (i.e., up to 4 time points during dosing, D1 to D4). Signals were analyzed continuously in 5-minute epochs, with pre-administration (i.e., PRE) values representing the overall mean over at least 5-epochs (i.e., 25 minutes) taken immediately prior to the onset of dosing, while during-dosing values reflect 5-minute averages (i.e., 1 epoch) taken prior to the (estimated) termination of each infusion. Data are presented as both means with standard deviations in summarizing tables/figure; beat-to-beat plots against heart rate are part of the study file.

[1] = D1, end of 30-min loading infusion, target OM 600 ng/mL
[2] = D2, end of 60-min maintenance infusion, target OM 600 ng/mL
[3] = D3, end of 30-min loading infusion, target OM 1000 ng/mL
[4] = D4, end of 60-min maintenance infusion, target OM 1000 ng/mL
[5] = PRE, before IV dosing (baseline)

COC(=O)N1CCN(Cc2cccc(NC(=O)Nc3ccc(C)nc3)c2F)CC1 [OM, methyl 4-(2-fluoro-3-(3-(6-methylpyridin-3-yl)ureido)benzyl)piperazine-1-carboxylate]
CT % vs. PRE [1]: −3%
CT (contraction time) [1]: 65.9 ms
EDP % vs. PRE [1]: −24%
EDP (left-ventricular end-diastolic pressure) [1]: 9.8 mmHg
FT % vs. PRE [1]: 23%
FT (filling time) [1]: 425 ms
HR % vs. PRE [1]: −14%
HR (heart rate) [1]: 86 bpm
MSP % vs. PRE [1]: −2%
MSP (left-ventricular mean systolic pressure) [1]: 127 mmHg
RT % vs. PRE [1]: 13%
RT (relaxation time) [1]: 104 ms
S/D % vs. PRE [1]: 18%
S/D (systolic to diastolic ratio, SET/RT + FT) [1]: 0.41
SET % vs. PRE [1]: 33%
SET (systolic ejection time) [1]: 207 ms
Tau % vs. PRE [1]: 19 ± 3%
Tau (left-ventricular relaxation time-constant) [1]: 36.7 ± 3.6 ms
Vmax % vs. PRE [1]: 3 ± 1%
Vmax (estimated maximal velocity of myocardial contractile-element shortening) [1]: 36.0 ± 1.7 s⁻¹
dP/dtmax % vs. PRE [1]: −6%
dP/dtmax (peak rate of LV pressure change during systole) [1]: 2,243 mmHg/s
dP/dtmin % vs. PRE [1]: −12%
dP/dtmin (peak rate of LV pressure change during diastole) [1]: −1,910 mmHg/s
CT % vs. PRE [2]: −2%
CT (contraction time) [2]: 66.7 ms
EDP % vs. PRE [2]: −33%
EDP (left-ventricular end-diastolic pressure) [2]: 8.5 mmHg
FT % vs. PRE [2]: 2%
FT (filling time) [2]: 321 ms
HR % vs. PRE [2]: 0%
HR (heart rate) [2]: 99 bpm
MSP % vs. PRE [2]: 0%
MSP (left-ventricular mean systolic pressure) [2]: 130 mmHg
RT % vs. PRE [2]: 20%
RT (relaxation time) [2]: 110 ms
S/D (systolic to diastolic ratio, SET/RT + FT) [2]: 0.5
SET (systolic ejection time) [2]: 214 ms
Tau % vs. PRE [2]: 33 ± 5%
Tau (left-ventricular relaxation time-constant) [2]: 41.1 ± 4.7 ms
Vmax % vs. PRE [2]: 7 ± 2%
Vmax (estimated maximal velocity of myocardial contractile-element shortening) [2]: 37.2 ± 1.6 s⁻¹
dP/dtmax % vs. PRE [2]: −1±4% and −1%
dP/dtmax (peak rate of LV pressure change during systole) [2]: 2,356 mmHg/s
dP/dtmin % vs. PRE [2]: −19%
dP/dtmin (peak rate of LV pressure change during diastole) [2]: −1,759 mmHg/s
CT % vs. PRE [3]: −1%
CT (contraction time) [3]: 67.0 ms
EDP % vs. PRE [3]: −13%
EDP (left-ventricular end-diastolic pressure) [3]: 10.8 mmHg
FT % vs. PRE [3]: −27%
FT (filling time) [3]: 251 ms
HR % vs. PRE [3]: 11%
HR (heart rate) [3]: 112 bpm
MSP % vs. PRE [3]: 0%
MSP (left-ventricular mean systolic pressure) [3]: 130 mmHg
RT % vs. PRE [3]: 24%
RT (relaxation time) [3]: 114 ms
S/D % vs. PRE [3]: 73%
S/D (systolic to diastolic ratio, SET/RT + FT) [3]: 0.60
SET % vs. PRE [3]: 34%
SET (systolic ejection time) [3]: 208 ms
Tau % vs. PRE [3]: 53 ± 7%
Tau (left-ventricular relaxation time-constant) [3]: 47.6 ± 6.5 ms
Vmax % vs. PRE [3]: 2 ± 2%
Vmax (estimated maximal velocity of myocardial contractile-element shortening) [3]: 35.6 ± 2.0 s⁻¹
dP/dtmax % vs. PRE [3]: −3%
dP/dtmax (peak rate of LV pressure change during systole) [3]: 2,319 mmHg/s
dP/dtmin % vs. PRE [3]: −26%
dP/dtmin (peak rate of LV pressure change during diastole) [3]: −1,608 mmHg/s
CT % vs. PRE [4]: 5%
CT (contraction time) [4]: 71.0 ms
EDP % vs. PRE [4]: 46%
EDP (left-ventricular end-diastolic pressure) [4]: 17.8 mmHg
FT % vs. PRE [4]: −71%
FT (filling time) [4]: 85 ms
HR (heart rate) [4]: 162 bpm
MSP % vs. PRE [4]: −15%
MSP (left-ventricular mean systolic pressure) [4]: 111 mmHg
RT % vs. PRE [4]: 1%
RT (relaxation time) [4]: 93 ms
S/D (systolic to diastolic ratio, SET/RT + FT) [4]: 1.06
SET % vs. PRE [4]: 5%
SET (systolic ejection time) [4]: 162 ms
Tau (left-ventricular relaxation time-constant) [4]: 54.7 ± 9.7 ms
Vmax % vs. PRE [4]: −19±8%
Vmax (estimated maximal velocity of myocardial contractile-element shortening) [4]: 28.4 ± 3.4 s⁻¹
dP/dtmax % vs. PRE [4]: −23%
dP/dtmax (peak rate of LV pressure change during systole) [4]: 1,844 mmHg/s
dP/dtmin % vs. PRE [4]: −41%
dP/dtmin (peak rate of LV pressure change during diastole) [4]: −1,288 mmHg/s
CT (contraction time) [5]: 67.9 ± 0.7 ms
EDP (left-ventricular end-diastolic pressure) [5]: 12.3 mmHg
FT (filling time) [5]: 370 ± 50 ms
HR (heart rate) [5]: 102 bpm
MSP (left-ventricular mean systolic pressure) [5]: 131 mmHg
RT (relaxation time) [5]: 92 ± 3 ms
S/D (systolic to diastolic ratio, SET/RT + FT) [5]: 0.36
SET (systolic ejection time) [5]: 156 ± 7 ms
Tau (left-ventricular relaxation time-constant) [5]: 30.8 ± 2.8 ms
Vmax (estimated maximal velocity of myocardial contractile-element shortening) [5]: 34.9 ± 1.6 s⁻¹
dP/dtmax (peak rate of LV pressure change during systole) [5]: 2,401 mmHg/s
dP/dtmin (peak rate of LV pressure change during diastole) [5]: −2,167 mmHg/s
